Measured values: the kinase profiling compilation of Christmann-Franck et al. (2016)

What was measured:
Test in all cases: KINOMEscan competition binding
Conditions in all cases: compound 10.0 µM
RIOK3 (human) = RIOK3 (human) (UniProt O14730)
PRKD1 (human) = PRKD1 (human) (UniProt Q15139)
MAPK14 (human) = MAPK14 (human) (UniProt Q16539)
PIM1 (human) = PIM1 (human) (UniProt P11309)
STK11 (human) = STK11 (human) (UniProt Q15831)
CDK16 (human) = CDK16 (human) (UniProt Q00536)
MAP4K1 (human) = MAP4K1 (human) (UniProt Q92918)
TNK1 (human) = TNK1 (human) (UniProt Q13470)
CDC2L2 (human) = CDC2L2 (human) (UniProt Q9UQ88)
MAP2K2 (human) = MAP2K2 (human) (UniProt P36507)
PHKG2 (human) = PHKG2 (human) (UniProt P15735)
STK10 (human) = STK10 (human) (UniProt O94804)
ZAP70 (human) = ZAP70 (human) (UniProt P43403)
IKBKB (human) = IKBKB (human) (UniProt O14920)
IKBKB (human), sequence (O14920 whole entry, looked up): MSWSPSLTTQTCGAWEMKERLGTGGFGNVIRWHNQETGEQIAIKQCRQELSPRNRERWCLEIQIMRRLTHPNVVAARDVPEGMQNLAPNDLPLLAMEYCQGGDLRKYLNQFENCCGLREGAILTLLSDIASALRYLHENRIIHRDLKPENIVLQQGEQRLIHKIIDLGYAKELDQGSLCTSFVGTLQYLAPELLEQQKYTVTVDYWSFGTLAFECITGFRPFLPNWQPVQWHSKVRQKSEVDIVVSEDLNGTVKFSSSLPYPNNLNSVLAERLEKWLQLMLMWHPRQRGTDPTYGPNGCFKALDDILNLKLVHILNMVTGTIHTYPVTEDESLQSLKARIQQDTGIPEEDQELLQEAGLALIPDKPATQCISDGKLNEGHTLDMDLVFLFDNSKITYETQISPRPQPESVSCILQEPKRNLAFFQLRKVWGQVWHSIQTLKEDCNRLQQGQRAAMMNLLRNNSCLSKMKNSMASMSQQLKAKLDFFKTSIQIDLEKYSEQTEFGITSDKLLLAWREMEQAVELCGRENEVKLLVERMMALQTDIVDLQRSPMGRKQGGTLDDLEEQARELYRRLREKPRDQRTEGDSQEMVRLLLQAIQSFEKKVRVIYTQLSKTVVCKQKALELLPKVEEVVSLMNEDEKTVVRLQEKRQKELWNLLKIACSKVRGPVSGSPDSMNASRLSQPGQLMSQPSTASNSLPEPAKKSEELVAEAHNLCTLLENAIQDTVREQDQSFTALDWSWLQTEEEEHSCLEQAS

DCLK1 (human) = DCLK1 (human) (UniProt O15075)
STK35 (human) = STK35 (human) (UniProt Q8TDR2)
MAPKAPK2 (human) = MAPKAPK2 (human) (UniProt P49137)
MAPKAPK2 (human), sequence (P49137 whole entry, looked up): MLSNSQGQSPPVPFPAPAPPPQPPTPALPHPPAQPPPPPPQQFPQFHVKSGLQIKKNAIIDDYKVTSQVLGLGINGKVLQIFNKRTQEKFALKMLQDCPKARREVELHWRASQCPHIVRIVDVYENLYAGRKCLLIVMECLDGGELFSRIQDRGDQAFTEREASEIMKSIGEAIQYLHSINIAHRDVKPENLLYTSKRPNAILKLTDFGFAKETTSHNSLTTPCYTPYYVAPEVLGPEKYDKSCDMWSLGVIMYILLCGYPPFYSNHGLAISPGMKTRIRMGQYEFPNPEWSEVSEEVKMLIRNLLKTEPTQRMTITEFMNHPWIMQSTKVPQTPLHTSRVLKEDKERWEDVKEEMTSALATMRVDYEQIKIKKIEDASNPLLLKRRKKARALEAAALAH

ROCK2 (human) = ROCK2 (human) (UniProt O75116)
KDR (human) = KDR (human) (UniProt P35968)
KDR (human), sequence (P35968 whole entry, looked up): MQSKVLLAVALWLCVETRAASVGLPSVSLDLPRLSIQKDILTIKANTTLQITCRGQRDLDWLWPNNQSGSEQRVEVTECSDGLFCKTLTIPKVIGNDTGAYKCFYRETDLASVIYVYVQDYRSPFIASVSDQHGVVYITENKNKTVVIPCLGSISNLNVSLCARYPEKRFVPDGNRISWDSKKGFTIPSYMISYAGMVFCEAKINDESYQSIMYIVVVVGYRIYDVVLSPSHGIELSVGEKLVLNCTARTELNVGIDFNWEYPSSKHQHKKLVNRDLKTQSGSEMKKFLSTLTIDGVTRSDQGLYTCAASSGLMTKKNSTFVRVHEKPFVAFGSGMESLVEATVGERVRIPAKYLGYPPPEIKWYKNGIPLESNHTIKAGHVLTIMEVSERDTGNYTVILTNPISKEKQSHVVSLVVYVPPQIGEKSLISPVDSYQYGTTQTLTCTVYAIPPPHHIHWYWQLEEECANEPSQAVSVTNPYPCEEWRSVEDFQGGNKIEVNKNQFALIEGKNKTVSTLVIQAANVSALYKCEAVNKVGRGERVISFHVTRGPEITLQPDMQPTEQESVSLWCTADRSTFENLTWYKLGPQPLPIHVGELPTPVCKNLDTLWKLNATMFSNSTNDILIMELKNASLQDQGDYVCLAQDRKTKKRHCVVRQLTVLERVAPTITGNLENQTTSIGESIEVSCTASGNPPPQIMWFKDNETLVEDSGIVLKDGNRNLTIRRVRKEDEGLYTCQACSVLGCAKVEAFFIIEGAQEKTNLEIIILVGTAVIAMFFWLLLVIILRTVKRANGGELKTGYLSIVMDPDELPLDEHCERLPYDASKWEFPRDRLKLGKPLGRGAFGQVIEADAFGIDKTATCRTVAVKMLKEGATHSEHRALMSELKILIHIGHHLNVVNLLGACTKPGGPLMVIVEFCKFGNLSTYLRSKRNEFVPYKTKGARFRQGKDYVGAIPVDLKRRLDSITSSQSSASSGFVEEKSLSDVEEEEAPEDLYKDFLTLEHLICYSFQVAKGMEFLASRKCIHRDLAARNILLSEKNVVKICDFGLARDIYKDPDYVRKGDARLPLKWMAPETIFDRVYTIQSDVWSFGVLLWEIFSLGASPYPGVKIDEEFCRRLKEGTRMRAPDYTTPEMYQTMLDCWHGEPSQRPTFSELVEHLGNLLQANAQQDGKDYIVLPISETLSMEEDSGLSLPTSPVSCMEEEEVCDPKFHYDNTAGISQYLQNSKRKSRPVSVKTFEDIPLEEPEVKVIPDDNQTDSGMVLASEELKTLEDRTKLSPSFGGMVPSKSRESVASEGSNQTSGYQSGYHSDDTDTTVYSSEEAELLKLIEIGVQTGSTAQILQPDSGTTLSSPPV

ULK3 (human) = ULK3 (human) (UniProt Q6PHR2)
ULK3 (human), sequence (Q6PHR2 whole entry, looked up): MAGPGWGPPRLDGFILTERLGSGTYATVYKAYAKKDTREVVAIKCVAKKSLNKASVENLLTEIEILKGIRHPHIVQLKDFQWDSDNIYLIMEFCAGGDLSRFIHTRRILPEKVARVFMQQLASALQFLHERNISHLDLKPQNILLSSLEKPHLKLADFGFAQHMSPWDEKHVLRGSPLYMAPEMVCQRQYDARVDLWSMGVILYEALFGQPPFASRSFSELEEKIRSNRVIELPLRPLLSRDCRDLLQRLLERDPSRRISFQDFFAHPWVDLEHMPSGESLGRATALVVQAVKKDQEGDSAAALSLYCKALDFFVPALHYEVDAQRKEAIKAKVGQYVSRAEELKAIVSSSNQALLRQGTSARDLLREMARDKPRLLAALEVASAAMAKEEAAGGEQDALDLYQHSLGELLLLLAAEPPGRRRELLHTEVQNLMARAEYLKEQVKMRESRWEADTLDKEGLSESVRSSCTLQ

MAP2K3 (human) = MAP2K3 (human) (UniProt P46734)
MAP2K3 (human), sequence (P46734 whole entry, looked up): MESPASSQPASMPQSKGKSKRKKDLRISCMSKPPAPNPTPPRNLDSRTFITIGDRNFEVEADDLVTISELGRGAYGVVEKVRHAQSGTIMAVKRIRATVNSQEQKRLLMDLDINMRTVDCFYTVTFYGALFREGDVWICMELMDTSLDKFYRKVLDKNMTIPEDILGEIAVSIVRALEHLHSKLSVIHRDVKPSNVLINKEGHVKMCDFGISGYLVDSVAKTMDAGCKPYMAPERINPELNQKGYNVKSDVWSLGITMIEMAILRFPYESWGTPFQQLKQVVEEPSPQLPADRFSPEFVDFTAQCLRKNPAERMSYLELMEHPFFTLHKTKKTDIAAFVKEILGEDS

PRKD3 (human) = PRKD3 (human) (UniProt O94806)
YES1 (human) = YES1 (human) (UniProt P07947)
[1] = target: JAK3 JH1 catalytic (human) (UniProt P52333)
ACVR1B (human) = ACVR1B (human) (UniProt P36896)
MAPK6 (human) = MAPK6 (human) (UniProt Q16659)
EPHB2 (human) = EPHB2 (human) (UniProt P29323)
FES (human) = FES (human) (UniProt P07332)
FES (human), sequence (P07332 whole entry, looked up): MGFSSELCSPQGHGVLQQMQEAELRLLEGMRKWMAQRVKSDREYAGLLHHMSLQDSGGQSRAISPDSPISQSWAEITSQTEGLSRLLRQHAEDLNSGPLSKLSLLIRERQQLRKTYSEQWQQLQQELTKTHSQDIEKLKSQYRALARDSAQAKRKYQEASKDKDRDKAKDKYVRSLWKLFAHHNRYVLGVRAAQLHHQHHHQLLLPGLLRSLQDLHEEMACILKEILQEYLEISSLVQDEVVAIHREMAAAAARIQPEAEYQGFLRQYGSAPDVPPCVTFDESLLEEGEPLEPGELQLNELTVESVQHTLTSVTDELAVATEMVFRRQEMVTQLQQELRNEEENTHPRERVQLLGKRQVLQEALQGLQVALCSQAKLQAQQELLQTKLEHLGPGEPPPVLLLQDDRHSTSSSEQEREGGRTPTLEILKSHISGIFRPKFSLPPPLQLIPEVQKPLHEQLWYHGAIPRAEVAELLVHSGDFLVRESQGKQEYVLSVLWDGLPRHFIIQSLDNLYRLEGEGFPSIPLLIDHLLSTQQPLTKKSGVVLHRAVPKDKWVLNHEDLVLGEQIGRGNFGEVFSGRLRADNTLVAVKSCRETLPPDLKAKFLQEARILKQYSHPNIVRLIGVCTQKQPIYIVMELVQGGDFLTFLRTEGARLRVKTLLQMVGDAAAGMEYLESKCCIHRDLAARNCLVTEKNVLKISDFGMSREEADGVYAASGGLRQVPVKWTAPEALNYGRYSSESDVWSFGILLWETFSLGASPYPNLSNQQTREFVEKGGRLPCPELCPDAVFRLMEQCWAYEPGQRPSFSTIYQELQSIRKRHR

STK38L (human) = STK38L (human) (UniProt Q9Y2H1)
FLT3 (human) = FLT3 (human) (UniProt P36888)
TYRO3 (human) = TYRO3 (human) (UniProt Q06418)
TNIK (human) = TNIK (human) (UniProt Q9UKE5)

RIOK3 (human), sequence (O14730 whole entry, looked up): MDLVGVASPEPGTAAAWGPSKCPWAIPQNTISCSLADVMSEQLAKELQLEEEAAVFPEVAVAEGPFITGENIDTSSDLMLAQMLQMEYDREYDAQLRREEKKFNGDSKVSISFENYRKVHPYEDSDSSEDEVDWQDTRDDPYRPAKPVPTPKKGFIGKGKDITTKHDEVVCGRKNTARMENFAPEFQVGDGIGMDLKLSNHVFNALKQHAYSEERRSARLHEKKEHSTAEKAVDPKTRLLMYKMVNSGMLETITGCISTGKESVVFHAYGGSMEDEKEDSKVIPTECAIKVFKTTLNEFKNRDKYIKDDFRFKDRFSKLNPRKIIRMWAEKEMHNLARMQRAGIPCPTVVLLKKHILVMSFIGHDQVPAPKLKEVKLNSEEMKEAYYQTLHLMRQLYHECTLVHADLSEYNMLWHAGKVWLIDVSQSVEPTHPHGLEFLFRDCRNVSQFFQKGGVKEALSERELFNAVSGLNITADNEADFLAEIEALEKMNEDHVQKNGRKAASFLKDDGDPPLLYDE
MAPK14 (human), sequence (Q16539 whole entry, looked up): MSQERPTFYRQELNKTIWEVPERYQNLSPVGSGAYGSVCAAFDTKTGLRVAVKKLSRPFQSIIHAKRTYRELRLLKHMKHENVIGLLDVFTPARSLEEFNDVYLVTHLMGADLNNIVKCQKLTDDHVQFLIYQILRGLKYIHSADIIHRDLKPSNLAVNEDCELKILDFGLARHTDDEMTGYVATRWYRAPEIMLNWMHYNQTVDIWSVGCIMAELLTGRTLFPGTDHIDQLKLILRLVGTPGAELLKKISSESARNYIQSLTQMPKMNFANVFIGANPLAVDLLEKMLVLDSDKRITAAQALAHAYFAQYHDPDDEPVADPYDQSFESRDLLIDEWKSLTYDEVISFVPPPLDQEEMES

| kinase still bound, per cent of control (RIOK3 (human)) | kinase still bound, per cent of control (PRKD1 (human)) | kinase still bound, per cent of control (MAPK14 (human)) | kinase still bound, per cent of control (PIM1 (human)) | kinase still bound, per cent of control (STK11 (human)) | kinase still bound, per cent of control (CDK16 (human)) | kinase still bound, per cent of control (MAP4K1 (human)) | kinase still bound, per cent of control (TNK1 (human)) | kinase still bound, per cent of control (CDC2L2 (human)) | kinase still bound, per cent of control (MAP2K2 (human)) | kinase still bound, per cent of control (PHKG2 (human)) | kinase still bound, per cent of control (STK10 (human)) | kinase still bound, per cent of control (ZAP70 (human)) | kinase still bound, per cent of control (IKBKB (human)) | kinase still bound, per cent of control (DCLK1 (human)) | kinase still bound, per cent of control (STK35 (human)) | kinase still bound, per cent of control (MAPKAPK2 (human)) | kinase still bound, per cent of control (ROCK2 (human)) | kinase still bound, per cent of control (ULK3 (human)) | kinase still bound, per cent of control (MAP2K3 (human)) | SMILES | other results |
| --- | --- | --- | --- | --- | --- | --- | --- | --- | --- | --- | --- | --- | --- | --- | --- | --- | --- | --- | --- | --- | --- |
| 100% | 100% | 5% | 100% | 100% | 100% | 100% | 100% | 100% | 100% | 100% | 100% | 100% | 100% | 100% | 100% | 100% | 100% | 100% | 100% | Cc1ccc(C(=O)Nc2cccc(C(F)(F)F)c2)cc1Nc1cncc(C(N)=O)c1 | kinase still bound, per cent of control (KDR (human)): 100%; kinase still bound, per cent of control (PRKD3 (human)): 100%; kinase still bound, per cent of control (YES1 (human)): 100%; kinase still bound, per cent of control [1]: 100%; kinase still bound, per cent of control (ACVR1B (human)): 100%; kinase still bound, per cent of control (MAPK6 (human)): 100%; kinase still bound, per cent of control (EPHB2 (human)): 1.6%; kinase still bound, per cent of control (FES (human)): 100%; kinase still bound, per cent of control (STK38L (human)): 100%; kinase still bound, per cent of control (FLT3 (human)): 100%; kinase still bound, per cent of control (TYRO3 (human)): 100%; kinase still bound, per cent of control (TNIK (human)): 100% |
| 100% | 7% | 100% | 100% | 100% | 100% | 100% | 32% | 100% | 100% | 20% | 100% | 100% | 100% | 5.4% | 100% | 100% | 100% | 100% | 100% | CC[C@@H]1C(=O)N(C)c2cnc(Nc3ccc(C(=O)NC4CCN(C)CC4)cc3OC)nc2N1C1CCCC1 | kinase still bound, per cent of control (PRKD3 (human)): 10%; kinase still bound, per cent of control (YES1 (human)): 100%; kinase still bound, per cent of control [1]: 100%; kinase still bound, per cent of control (ACVR1B (human)): 100%; kinase still bound, per cent of control (MAPK6 (human)): 100%; kinase still bound, per cent of control (EPHB2 (human)): 100%; kinase still bound, per cent of control (STK38L (human)): 100%; kinase still bound, per cent of control (FLT3 (human)): 100%; kinase still bound, per cent of control (TYRO3 (human)): 100%; kinase still bound, per cent of control (TNIK (human)): 100% |
| 100% | 100% | 100% | 100% | 100% | 100% | 100% | 100% | 100% | 100% | 100% | 29% | 100% | 100% | 4% | 100% | 100% | 100% | 100% | 100% | COc1cc(C(=O)NC2CCN(C)CC2)ccc1Nc1ncc2c(n1)N(C1CCCC1)C(C)CC(=O)N2C (stereo unspecified) | kinase still bound, per cent of control (KDR (human)): 100%; kinase still bound, per cent of control (PRKD3 (human)): 32%; kinase still bound, per cent of control (YES1 (human)): 100%; kinase still bound, per cent of control [1]: 100%; kinase still bound, per cent of control (ACVR1B (human)): 100%; kinase still bound, per cent of control (MAPK6 (human)): 100%; kinase still bound, per cent of control (EPHB2 (human)): 100%; kinase still bound, per cent of control (FES (human)): 100%; kinase still bound, per cent of control (STK38L (human)): 100%; kinase still bound, per cent of control (FLT3 (human)): 100%; kinase still bound, per cent of control (TYRO3 (human)): 100%; kinase still bound, per cent of control (TNIK (human)): 100% |
| 20% | 12% | 100% | 100% | 100% | 100% | 34% | 1.8% | 100% | 100% | 3.5% | 100% | 100% | 100% | 1% | 100% | 100% | 27% | 12% | 100% | C=CC(=O)Nc1cccc(Oc2nc(Nc3ccc(N4CCN(C)CC4)cc3OC)ncc2Cl)c1 | kinase still bound, per cent of control (KDR (human)): 100%; kinase still bound, per cent of control (PRKD3 (human)): 10%; kinase still bound, per cent of control (YES1 (human)): 100%; kinase still bound, per cent of control [1]: 0.4%; kinase still bound, per cent of control (ACVR1B (human)): 100%; kinase still bound, per cent of control (MAPK6 (human)): 100%; kinase still bound, per cent of control (EPHB2 (human)): 100%; kinase still bound, per cent of control (FES (human)): 11%; kinase still bound, per cent of control (STK38L (human)): 100%; kinase still bound, per cent of control (FLT3 (human)): 4.6%; kinase still bound, per cent of control (TYRO3 (human)): 100%; kinase still bound, per cent of control (TNIK (human)): 100% |
